Experimental data published in patent US20180371408A1, “CELL CULTURES AND METHODS OF USE” (priority 2017, published 2018).
Read-outs that look alike come from different tables or passages of the source.

Assays:
[1] = system: testicular cell co-culture (C18-4, TM4, TM3); experiment: BrdU incorporation (DNA synthesis) and cell cycle HCA; assay type: cell-based, mouse
Experimental: (§1) BrdU incorporation, cell fixation, BrdU, and DNA staining followed the previously published protocol (Liang, et al., 2017b). the determination of DNA damage responses and cytoskeleton analysis was conducted after cell fixation. The cells were then permeabilized by a 0.1% Triton X-100 in PBS, and then incubated with a mouse-anti phosphor-histone H2AX (Ser139) (γ-H2AX) overnight at 4° C. […] Finally, prior to acquiring the images, the cells were stained with Alexa Fluor 488 Phallodin for 30 minutes to stain the F-actin (Liang, et al., 2017)
(§2) Multi-Channel images were analyzed using HCS Studio™2.0 TargetActivation BioApplication. Multiple parameters of nuclei were characterized in HCA, including nuclei number, nuclear area, shape, and total DNA intensity. Nuclear shape measurements included P2A, a ratio of the nuclear perimeter squared to 4it*nucleus area (perimeter^2/4π*enuclear area) to evaluate nuclear smoothness, and LWR, a ratio of the nuclear length to width, to measure nuclear roundness. For a fairly round and smooth object, the values for P2A and LWR are around 1.0. Total intensity was defined as total pixel intensity within a cell in the respective channel. The total intensities of BrdU, γ-H2AX, and F-actin of the individual cells were also quantified. With forty-nine 20× images acquired from each well, at least 1,000 cells were analyzed per well, and single-cell based data were extracted for further analysis. The experiments were performed with at least four biological replicates and repeated twice.
(§3) Data were presented as mean±standard deviation (SD).

[2] = system: testicular cell co-culture (C18-4, TM4, TM3); experiment: NR dye uptake assay, co-cultures treated with BPA and analogs (Example 2)
Experimental: (§4) The testicular cell co-culture model was established as reported in Example 1 Briefly, mouse spermatogonial cell line C18-4 was established via germ cells isolated from the testes of 6 day old Balb/c mice. […] Mouse Leydig (TM3) and Sertoli (TM4) cell lines were purchased from ATCC, and these cells were isolated from prepubertal mouse gonads. C18-4 cells were maintained in DMEM composed of 5% FBS, and 100 U/ml streptomycin and penicillin in a 33° C., 5% CO2 humidified environment in a sub-confluent condition, and were passaged every 3-4 days TM3 and TM4 cells were cultured in DME/F12 composed of 1.25% FBS, 2.5% horse serum, and 100 U/ml streptomycin and penicillin at 37° C., 5% CO2 in a sub-confluent condition, and were passaged every 2-3 days. When the cells reached 70-80% confluence, a total of 1.5×10^4 cells per well were inoculated into a 96-well plate. […] The co-cultures were maintained in DMEM composed of 2.5% Nu-serum, and 100 U/ml streptomycin and penicillin in a 33° C., 5% CO2 humidified environment.
(§5) Cell viability was determined through the Neutral Red uptake assay, which is based on the ability of viable cells to incorporate NR dye into their lysosomes, while the dye is not retained if the cell dies (Repetto et al., 2008). […] The vehicle controls were set as the co-cultures treated with the vehicle (0.05% DMSO) After the treatments, the culture medium was replaced by fresh medium containing NR (50 μg/ml). After a 3 h incubation period, the co-cultures were washed with phosphate buffered saline (PBS), and the NR dye was eluted with 100 μl of a 0.5% acetic acid/50% ethanol solution. The plate was then gently shaken, and absorbance values were measured at 540 nm with a Synergy HT microplate reader (BioTek, VT). Cell viability was presented as a percentage of the mean of vehicle controls after subtracting background readings.
(§6) The data obtained from the HCS Studio·8 2.0 TargetActivation BioApplication, CellProfiler and CellProfiler Analyst were exported and further analyzed using the JMP statistical analysis package (SAS Institute, NC). To remove cell clumps, nuclei with areas larger than […] were excluded. […] For intra-plate normalization, data were normalized to the overall scaling factors, which was the mean of medians of the vehicle controls in each plate. The single cell-based data were averaged for the well-based condition. BrdU-positive cells were set by the total intensity of BrdU in the control at over 25,000 pixels. γ-H2AX positive cells were set by the total intensity of γ-H2AX in the control at over 120,000 pixels. The median lethal concentrations (LC50) were calculated using a nonlinear regression curve fit on GraphPad Prism 5 (San Diego, Calif.). To examine the correlation between the cytoskeleton and DNA damage responses in multinucleated cells, the Spearman correlation analysis was conducted between the total intensity of F-actin and γ-H2AX for 24, 48, and 72 h using cell-based data. Data were presented as mean±standard deviation (SD). Statistical significance was determined using one-way ANOVA followed by Tukey-Kramer all pairs comparison. The p-value less than 0.05 denoted a significant difference compared to the vehicle control (*).

[3] = system: Spermatogonial cells (C18-4); experiment: cells; assay type: cell-based, mouse; conditions: Mus musculus, read-out: IC50
[4] = system: testicular cell co-culture (C18-4, TM4, TM3); experiment: HCA of F-actin cytoskeleton and γ-H2AX DNA damage response; assay type: cell-based, mouse; conditions: for effect on F-actin cord-like structures, in words: FIG. 14A: BPA and BPS 100 μM, BPAF 5 and 15 μM, TBBPA 15 μM, 48 h; for γ-H2AX expression, in words: co-cultures, up to 100 μM; for doses inducing DNA damage response (γ-H2AX): co-culture model
Experimental: as §1
Multi-channel images were then automatically acquired using an Arrayscan™ VTI HCS reader (Thermo Scientific, MA) with the HCS Studio 2.0 Target Activation BioApplication module. Forty-nine fields per well were acquired at 20× and 40× magnification using a Hamamatsu ROCA-ER digital camera in combination with a 0.63× coupler and Carl Zeiss microscope optics in auto-focus mode. Image smoothing was conducted in order to reduce object fragmentation prior to the primary object identification that takes place in the first channel. Channel one (Ch1) applied the BGRFR 386_23 for Hoechst 33342 that was used for auto-focus, object identification, and segmentation. The border objects were then excluded. Channel two (Ch2) applied applied the BGRFR 549_15, which identified the BrdU staining and BGRFR 485_20 to identify the F-actin staining. BGRFR 650_13 was applied in Channel three (Ch3) and identified the γ-H2AX staining.
as §2, §3

[5] = system: testicular co-culture: spermatogonial cells (C18-4), Sertoli cells (TM4), Leydig cells (TM3); experiment: cells; conditions: Mus musculus
[6] = NR dye uptake assay, co-cultures treated with BPA and analogs (Example 2); conditions: mouse
Experimental: as §4, §5, §6

Structure (SMILES) | doses with significant decrease in BrdU-positive cells ([1]; 24 h) [µM] | doses significantly decreasing cell viability ([2]; 24 h) [µM] | IC50 ([3]; 24 h) [µM] | IC50 ([3]; 48 h) [µM] | doses with significant increase in F-actin total intensity ([4]; 24 and 48 h) [µM] | effect on F-actin cord-like structures, in words [4] | γ-H2AX expression, in words [4] | IC50 ([5]; 24 h) [µM] | IC50 ([5]; 48 h) [µM] | doses with significant decrease in BrdU-positive cells ([1]; 24 and 48 h) [µM] | CC50 at 72 h [6] [µM] | doses with significant increase in F-actin total intensity ([4]; 72 h) [µM] | HCA-based cell cycle analysis, in words [1] | dose inducing BrdU-positive cells ([1]; 72 h) [µM] | doses with significant decrease in BrdU-positive cells ([1]; 72 h) [µM] | doses significantly decreasing cell viability ([2]; 24, 48, and 72 h) [µM] | toxicity ranking among BPA and analogs ([2]; co-culture model, followed by TBBPA, BPA, and BPS) | doses inducing DNA damage response (γ-H2AX) [4] [µM] | doses with significant decrease in BrdU-positive cells ([1]; 48 and 72 h) [µM] | IC50 ([5]; read-out: IC50 values (mostly)) [µM]
O=S(=O)(c1ccc(O)cc1)c1ccc(O)cc1 [BPS, 4,4′-Sulfonyldiphenol] | 100 | ≥ 400 | 505 | 357 | 100 | induced no notable changes | did not induce γ-H2AX expression | 574 | 341 | – | – | – | – | – | – | – | – | – | – | –
CC(C)(c1ccc(O)cc1)c1ccc(O)cc1 [BPA, 4,4′-(propane-2,2-diyl) diphenol] | – | ≥ 200 | 190 | 184 | – | dramatically perturbed these structures | did not induce γ-H2AX expression | 210 | 186 | 100 | 150 | 100 | – | – | – | – | – | – | – | –
Oc1ccc(C(c2ccc(O)cc2)(C(F)(F)F)C(F)(F)F)cc1 [BPAF, 4,4′-(Hexafluoroisopropylidene)diphenol] | – | – | 70 | 58.5 | – | dramatically perturbed these structures | – | 78 | 50 | – | 8.5 | – | significantly induced G2/M phase arrest | 10 | 15 | ≥ 5 | highest toxicity | ≥ 5 | – | –
CC(C)(c1cc(Br)c(O)c(Br)c1)c1cc(Br)c(O)c(Br)c1 [TBBPA, 2,2′,6,6′-Tetrabromo-4,4′-isopropylidenediphenol] | – | – | 74.9 | 55 | – | dramatically perturbed these structures | – | 70 | 58 | – | 16.8 | – | – | – | – | ≥ 25 | – | 15 | 15 | ≤ 100
